According to US20240270762A1, “PENICILLIN-BINDING PROTEIN INHIBITORS” (priority 2021, published 2024):
In brackets after ≈: the same amount, converted by molar mass. Where two headings read alike, the source gives them in different places.

Assays:
A. baumannii PBP1a = molecular target: T1, A. baumannii PBP1a (Acinetobacter baumannii, UniProt A0ABX6CK30); experiment: Bocillin-FL competition binding via gel filtration, A. baumannii PBP1a
T1 sequence (A0ABX6CK30 1-851): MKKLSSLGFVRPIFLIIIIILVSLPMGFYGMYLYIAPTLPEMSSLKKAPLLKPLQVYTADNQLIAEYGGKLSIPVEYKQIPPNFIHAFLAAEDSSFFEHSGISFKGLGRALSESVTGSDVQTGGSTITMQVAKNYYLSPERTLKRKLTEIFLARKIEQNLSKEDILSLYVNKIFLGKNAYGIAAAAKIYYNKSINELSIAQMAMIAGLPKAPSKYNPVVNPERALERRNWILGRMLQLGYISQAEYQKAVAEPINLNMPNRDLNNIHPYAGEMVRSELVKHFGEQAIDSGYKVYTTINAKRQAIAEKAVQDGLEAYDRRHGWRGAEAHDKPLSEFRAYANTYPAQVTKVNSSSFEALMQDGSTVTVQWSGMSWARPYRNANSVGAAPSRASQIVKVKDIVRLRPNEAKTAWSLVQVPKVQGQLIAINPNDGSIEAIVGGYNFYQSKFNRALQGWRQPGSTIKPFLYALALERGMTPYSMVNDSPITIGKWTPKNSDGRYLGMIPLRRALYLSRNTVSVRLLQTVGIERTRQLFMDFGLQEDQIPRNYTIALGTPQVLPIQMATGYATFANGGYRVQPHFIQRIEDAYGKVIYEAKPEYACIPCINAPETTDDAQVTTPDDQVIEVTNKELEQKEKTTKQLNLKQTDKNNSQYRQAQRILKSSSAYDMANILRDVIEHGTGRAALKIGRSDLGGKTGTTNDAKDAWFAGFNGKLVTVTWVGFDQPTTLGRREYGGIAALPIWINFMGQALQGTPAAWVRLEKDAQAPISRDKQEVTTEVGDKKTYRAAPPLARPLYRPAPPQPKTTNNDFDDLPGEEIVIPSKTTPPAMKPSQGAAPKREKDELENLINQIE
In short: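 Competitive equilibrium binding with Bocillin-FL reporter: PBP pre-incubated with inhibitor dilutions, Bocillin-FL added, 15 min incubation. Labelled enzyme isolated by size-exclusion spin plates, fluorescence measured; EC50 obtained by fitting bound fraction against inhibitor concentration with a Hill-coefficient model.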

P. aeruginosa ATCC 27853 = experiment: microbe, parasite or virus in culture; assay type: cell-based; conditions: Pseudomonas aeruginosa, ATCC27853, read-out: Minimum inhibitory concentration, P. aeruginosa ATCC 27853
A. baumannii ATCC 17978 = experiment: microbe, parasite or virus in culture; assay type: cell-based; conditions: Acinetobacter baumannii
P. aeruginosa ATCC 35151 = experiment: microbe, parasite or virus in culture; assay type: cell-based; conditions: Pseudomonas aeruginosa, ATCC35151, read-out: Minimum inhibitory concentration, P. aeruginosa ATCC 35151
P. aeruginosa CDC-0054 = experiment: microbe, parasite or virus in culture; assay type: cell-based; conditions: Pseudomonas aeruginosa, CDC0054, read-out: Minimum inhibitory concentration, P. aeruginosa CDC-0054
P. aeruginosa CDC-0090 = experiment: microbe, parasite or virus in culture; assay type: cell-based; conditions: Pseudomonas aeruginosa, CDC0090, read-out: Minimum inhibitory concentration, P. aeruginosa CDC-0090
P. aeruginosa CDC-0095 = experiment: microbe, parasite or virus in culture; assay type: cell-based; conditions: Pseudomonas aeruginosa, CDC0095, read-out: Minimum inhibitory concentration, P. aeruginosa CDC-0095
A. baumannii 1258916 = experiment: microbe, parasite or virus in culture; assay type: cell-based, Acinetobacter baumannii
A. baumannii CDC-0033 = experiment: microbe, parasite or virus in culture; assay type: cell-based; conditions: Acinetobacter baumannii
[1] = test system: B. thailandensis ATCC 700388; experiment: microbe, parasite or virus in culture; assay type: cell-based; conditions: Burkholderia thailandensis, ATCC700388, read-out: Minimum inhibitory concentration (MIC), B. thailandensis ATCC 700388
[2] = test system: B. humptydooensis ATCC BAA-2767; experiment: microbe, parasite or virus in culture; assay type: cell-based; conditions: Burkholderia humptydooensis, ATCCBAA2767, read-out: Minimum inhibitory concentration (MIC), B. humptydooensis ATCC BAA-2767
[3] = competition binding assay using Bocillin-FL via gel filtration, read-out: A. baumannii PBP1a Potency
[4] = ATCC17978, read-out: MIC, A. baumannii ATCC 17978
[5] = Acinetobacter baumannii, 1258916, read-out: MIC, A. baumannii 1258916
[6] = CDC0033, read-out: MIC, A. baumannii CDC-0033
[7] = ATCC17978, read-out: Minimum inhibitory concentration (MIC), A. baumannii ATCC 17978
[8] = Acinetobacter baumannii, 1258916, read-out: Minimum inhibitory concentration (MIC), A. baumannii 1258916
[9] = CDC0033, read-out: Minimum inhibitory concentration (MIC), A. baumannii CDC-0033

| Compound | EC50 (A. baumannii PBP1a; [3]) [µM] | MIC (P. aeruginosa ATCC 27853) [µg/mL] | MIC (A. baumannii ATCC 17978; [4]) [µg/mL] | MIC (P. aeruginosa ATCC 35151) [µg/mL] | MIC (P. aeruginosa CDC-0054) [µg/mL] | MIC (P. aeruginosa CDC-0090) [µg/mL] | MIC (P. aeruginosa CDC-0095) [µg/mL] | MIC (A. baumannii 1258916; [5]) [µg/mL] | MIC (A. baumannii CDC-0033; [6]) [µg/mL] | MIC [1] [µg/mL] | MIC [2] [µg/mL] | MIC (A. baumannii ATCC 17978; [7]) [µg/mL] | MIC (A. baumannii 1258916; [8]) [µg/mL] | MIC (A. baumannii CDC-0033; [9]) [µg/mL] | EC50 (A. baumannii PBP1a) [µM] |
| --- | --- | --- | --- | --- | --- | --- | --- | --- | --- | --- | --- | --- | --- | --- | --- |
| O=C(O)c1c(F)ccc2c1OB(O)[C@@H](NC(=O)[C@H](NC(=O)N1CCN(C3CCN(C(=O)c4cc(O)ccc4Cl)CC3)C1=O)c1cc(F)c(O)c(O)c1Cl)C2 (single isomer, unassigned) [Example 434] | < 10 | < 1 | < 1 | < 1 | < 1 | < 1 | < 1 | < 1 | < 1 | < 1 | < 1 | – | – | – | – |
| O=C(O)c1cccc2c1OB(O)[C@@H](NC(=O)[C@H](NC(=O)N1CCN(Cc3cc(F)c(O)c(O)c3Cl)C(=O)C1=O)c1ccc(P(=O)(O)O)cc1)C2 [Example 504, (R)-3-((R)-2-(4-(2-chloro-5-fluoro-3,4-dihydroxybenzyl)-2,3-dioxopiperazine-1-carboxamido)-2-(4-phosphonophenyl)acetamido)-2-hydroxy-3,4-dihydro-2H-benzo[e][1,2]oxaborinine-8-carboxylic acid] | < 10 | < 1 | – | < 1 | < 1 | < 1 | < 1 | – | – | < 1 | < 1 | < 1 | < 1 | < 1 | – |
| O=C(O)c1c(F)ccc2c1OB(O)[C@@H](NC(=O)[C@H](NC(=O)N1CCN(C3CCN(C(=O)Nc4cc(F)c(F)c(O)c4F)CC3)C(=O)C1=O)c1cc(F)c(O)c(O)c1Cl)C2 [Example 491, (R)-3-((R)-2-(2-chloro-5-fluoro-3,4-dihydroxyphenyl)-2-(2,3-dioxo-4-(1-((2,4,5-trifluoro-3-hydroxyphenyl)carbamoyl)piperidin-4-yl)piperazine-1-carboxamido)acetamido)-7-fluoro-2-hydroxy-3,4-dihydro-2H-benzo[e][1,2]oxaborinine-8-carboxylic acid] | < 10 | 2 to 4 (≈ 2.34 to 4.68 µM) | – | < 1 | < 1 | 2 to 4 (≈ 2.34 to 4.68 µM) | 2 to 4 (≈ 2.34 to 4.68 µM) | – | – | 2 to 4 (≈ 2.34 to 4.68 µM) | 8 to 16 (≈ 9.36 to 18.7 µM) | < 1 | < 1 | 2 to 4 (≈ 2.34 to 4.68 µM) | – |
| O=C(O)c1c(F)ccc2c1OB(O)[C@@H](NC(=O)[C@H](NC(=O)N1CCN(C3CCN(C(=O)c4cccc(O)c4)CC3)C1=O)c1cc(F)c(O)c(O)c1Cl)C2 (single isomer, unassigned) [Example 430] | < 10 | < 1 | < 1 | < 1 | < 1 | < 1 | < 1 | 8 to 16 (≈ 10.6 to 21.1 µM) | 8 to 16 (≈ 10.6 to 21.1 µM) | < 1 | < 1 | – | – | – | – |
| O=C(O)c1c(F)ccc2c1OB(O)[C@@H](NC(=O)[C@H](NC(=O)N1CCN(C3CCN(Cc4cccnc4)CC3)C1=O)c1cc(F)c(O)c(O)c1Cl)C2 [Example 492, (R)-3-((R)-2-(2-chloro-5-fluoro-3,4-dihydroxyphenyl)-2-(2-oxo-3-(1-(pyridin-3-ylmethyl)piperidin-4-yl)imidazolidine-1-carboxamido)acetamido)-7-fluoro-2-hydroxy-3,4-dihydro-2H-benzo[e][1,2]oxaborinine-8-carboxylic acid] | – | < 1 | – | < 1 | < 1 | < 1 | 2 to 4 (≈ 2.74 to 5.49 µM) | – | – | < 1 | < 1 | < 1 | < 1 | < 1 | < 10 |
| O=C(O)c1c(F)ccc2c1OB(O)[C@@H](NC(=O)[C@H](NC(=O)N1CCN(C3CCN(C(=O)c4cccc(O)c4Cl)CC3)C1=O)c1cc(F)c(O)c(O)c1Cl)C2 (single isomer, unassigned) [Example 432] | < 10 | < 1 | < 1 | < 1 | < 1 | < 1 | < 1 | < 1 | 2 to 4 (≈ 2.52 to 5.05 µM) | < 1 | < 1 | – | – | – | – |
| O=C(O)c1c(F)ccc2c1OB(O)[C@@H](NC(=O)[C@H](NC(=O)N1CCN(C3CCN(C(=O)Nc4cc(O)cc(O)c4)CC3)C1=O)c1cc(F)c(O)c(O)c1Cl)C2 [Example 456, (R)-3-((R)-2-(2-chloro-5-fluoro-3,4-dihydroxyphenyl)-2-(3-(1-((3,5-dihydroxyphenyl)carbamoyl)piperidin-4-yl)-2-oxoimidazolidine-1-carboxamido)acetamido)-7-fluoro-2-hydroxy-3,4-dihydro-2H-benzo[e][1,2]oxaborinine-8-carboxylic acid] | < 10 | < 1 | < 1 | < 1 | < 1 | < 1 | < 1 | < 1 | < 1 | < 1 | < 1 | – | – | – | – |
| O=C(O)c1c(F)ccc2c1OB(O)[C@@H](NC(=O)[C@H](NC(=O)N1CCN(C3CCN(C(=O)Nc4ccc(O)cc4)CC3)C(=O)C1=O)c1cc(F)c(O)c(O)c1Cl)C2 (single isomer, unassigned) [Example 426] | 10 to 50 | 2 to 4 (≈ 2.5 to 4.99 µM) | < 1 | < 1 | < 1 | < 1 | 2 to 4 (≈ 2.5 to 4.99 µM) | 2 to 4 (≈ 2.5 to 4.99 µM) | 2 to 4 (≈ 2.5 to 4.99 µM) | < 1 | < 1 | – | – | – | – |
| O=C(O)c1c(F)ccc2c1OB(O)[C@@H](NC(=O)C(NC(=O)N1CCN(C3CCN(C(=O)Nc4cc(O)c(F)c(F)c4)CC3)C(=O)C1=O)c1cc(F)c(O)c(O)c1Cl)C2 (stereo partly drawn) [Example 488, (3R)-3-(2-(2-chloro-5-fluoro-3,4-dihydroxyphenyl)-2-(4-(1-((3,4-difluoro-5-hydroxyphenyl)carbamoyl)piperidin-4-yl)-2,3-dioxopiperazine-1-carboxamido)acetamido)-7-fluoro-2-hydroxy-3,4-dihydro-2H-benzo[e][1,2]oxaborinine-8-carboxylic acid] | < 10 | 2 to 4 (≈ 2.39 to 4.78 µM) | – | < 1 | < 1 | < 1 | 2 to 4 (≈ 2.39 to 4.78 µM) | – | – | 8 to 16 (≈ 9.56 to 19.1 µM) | > 128 | < 1 | < 1 | 2 to 4 (≈ 2.39 to 4.78 µM) | – |
| O=C(O)c1c(F)ccc2c1OB(O)[C@@H](NC(=O)C(NC(=O)N1CCN(C3CCN(C(=O)Nc4c(F)ccc(O)c4F)CC3)C(=O)C1=O)c1cc(F)c(O)c(O)c1Cl)C2 (stereo partly drawn) [Example 487, (3R)-3-(2-(2-chloro-5-fluoro-3,4-dihydroxyphenyl)-2-(4-(1-((2,6-difluoro-3-hydroxyphenyl)carbamoyl)piperidin-4-yl)-2,3-dioxopiperazine-1-carboxamido)acetamido)-7-fluoro-2-hydroxy-3,4-dihydro-2H-benzo[e][1,2]oxaborinine-8-carboxylic acid] | 10 to 50 | < 1 | – | < 1 | < 1 | 2 to 4 (≈ 2.39 to 4.78 µM) | < 1 | – | – | < 1 | 2 to 4 (≈ 2.39 to 4.78 µM) | < 1 | < 1 | 2 to 4 (≈ 2.39 to 4.78 µM) | – |
